This is an account of results in US20060110450A1, “Bilayer tablet of telmisartan and amlodipine” (Boehringer Ingelheim International GmbH, priority 2004, published 2006).

The conditions of data set [1]: physiological pH range of the gastrointestinal tract between pH 1 to 7; cited from earlier work.
The nature of data set [2]: Stability of amlodipine in contact with the basic telmisartan formulation. It is filed as physicochemical. The settings on record: direct contact with excipients to be used in a telmisartan formulation (basic components, e.g. sodium hydroxide or meglumine). The text has this: There are various types of fixed dose combination dosage forms conceivable but it cannot be predicted which of these dosage forms best combines product stability, pharmacological efficacy, and reliable manufacture. Generally, combinations of two active pharmaceutical ingredients could be formulated as oral solid or oral liquid dosage forms such as tablets, capsules, coated or sugar-coated tablets, granules, oral solutions, emulsions or suspensions, syrups, and lozenges. In view of experiences with liquid dosage forms of telmisartan, oral liquid dosage forms are not considered a preferred embodiment according to the present invention. An instant release oral solid dosage form containing two drugs could be prepared by either making a powder mixture or a co-granulate of the two active ingredients with the necessary excipients. However, for a combination of telmisartan and amlodipine, this approach turns out not to result in a dosage form with sufficient product stability. […] The ester bonds in the amlodipine molecule appear to be subject to hydrolysis when exposed to an alkaline milieu. […]

As to `CCCc1nc2c(C)cc(-c3nc4ccccc4n3C)cc2n1Cc1ccc(-c2ccccc2C(=O)O)cc1` [Telmisartan, 4′-[2-n-propyl-4-methyl-6-(1-methylbenzimidazol-2-yl)benzimidazol-1-ylmethyl]biphenyl-2-carboxylic acid], the “solubility in aqueous systems” value in data set [1] is “very poor solubility”.
Regarding “3-ethyl-5-methyl-2-(2-aminoethoxymethyl)-4-(2-chlorophenyl)-1,4-dihydro-6-methyl-3,5-pyridinedicarboxylate [amlodipine]”, in data set [2], the stability of amlodipine result is on record as “not stable enough”.
